Common to all, as to type: functional, organism-based
Assay [1] deals with Trypanosoma brucei brucei. The assay is described as follows: Antimicrobial activity against Trypanosoma brucei brucei.
The subject of assay [2] is Trypanosoma brucei rhodesiense. Description: Antimicrobial activity against Trypanosoma brucei rhodesiense.
The next assay has as its system Trichomonas vaginalis. Description: Antimicrobial activity against Trichomonas vaginalis.
For another assay, the system named is Leishmania infantum. Description: Antimicrobial activity against Leishmania infantum.
Another assay has as its system Leishmania donovani. The assay is described as follows: Antimicrobial activity against Leishmania donovani.

Molecules are shown by their SMILES.

The compound `CC(C)(C)OC(=O)NC(=N)c1ccc(NC(=O)Cn2cnc([N+](=O)[O-])c2)cc1` returned a half-maximal inhibitory concentration (IC50) in assay [1] of 200 µM.

`N=C(NCCCN(CCNC(=N)NC1CCCCC1)C(=N)NC1CCCCC1)NC1CCCCC1` gave a half-inhibitory concentration (IC50) in assay [2] of 21 µM.

For `C1CN(N2CCNCC2)CCN1`, the midpoint of inhibition in assay [2], the IC50, lay at 17 µM.

Consider `CC(C)(C)CC(=O)N1CCN(N2CCN(C(=O)CC(C)(C)C)CC2)CC1`, for which the IC50 in assay [2] stood at 5 µM.

Compound `C1CNC(N2CCN(N3CCN(C4=NCCN4)CC3)CC2)=N1` registered an IC50 in assay [2] of 28 µM.

`CC(C)(C)OC(=O)NCCNC(=S)N1CCN(N2CCN(C(=S)NCCNC(=O)OC(C)(C)C)CC2)CC1` came in with an IC50 in assay [2] of 14 µM.

Consider `O=C(CCN1CCCN(C(=O)OCc2ccccc2)C1)OCc1ccccc1`, for which, in assay [2], the IC50 worked out at 3 µM.

In assay [2], `NCCCNCCN` displayed an IC50 of 49 µM.

On to `O=C(O)c1ccccc1Nc1ccc2nc(Cl)sc2c1`, for which the figures for the IC50 in the assay with Trichomonas vaginalis and in the assay on Leishmania infantum were 17 µM and 5 µM, respectively.

For `CN(C)c1ccc(Nc2nc3ccc(Nc4ccccc4C(=O)O)cc3s2)cc1`, the results for the IC50 in the assay on Trichomonas vaginalis and in the assay on Leishmania infantum were 26 µM and 68 µM, respectively.

As for `O=C(O)c1ccccc1Nc1ccc2nc(NCCO)sc2c1`, the figures for the IC50 with Trichomonas vaginalis and in the assay on Leishmania infantum were 158 µM and 4 µM, respectively.

Regarding `COc1cc(NS(C)(=O)=O)ccc1Nc1nc2ccc(Nc3ccccc3C(=O)O)cc2s1`, the IC50 in the assay on Trichomonas vaginalis turned out to be 22 µM; in the assay on Leishmania infantum it was 13 µM.

Consider `O=C(O)c1ccccc1Nc1ccc2nc(Nc3cccc(O)c3)sc2c1`, for which the results for the IC50 with Trichomonas vaginalis and in the assay on Leishmania infantum were 134 µM and 237 µM, respectively.

For `CC(=O)Nc1nc2ccc(Nc3ccccc3C(=O)O)cc2s1`, the IC50 in the assay with Trichomonas vaginalis and in the assay with Leishmania infantum was 18 µM each time.

Take `Nc1nc2ccc(Nc3ccccc3C(=O)O)cc2s1`: the IC50 stood at 125 µM with Trichomonas vaginalis and 2 µM with Leishmania infantum.

As to `CN(C)c1nc2ccc(Nc3ccccc3C(=O)O)cc2s1`, the IC50 was 102 µM in the assay with Trichomonas vaginalis and 80 µM in the assay with Leishmania infantum.

Take `CCN(CC)c1nc2ccc(Nc3ccccc3C(=O)O)cc2s1`: the IC50 in the assay on Trichomonas vaginalis worked out at 3 µM; in the assay with Leishmania infantum, 33 µM.

On to `O=C(O)c1ccccc1Nc1ccc2nc(N3CCCCC3)sc2c1`, for which the IC50 stood at 83 µM in the assay on Trichomonas vaginalis and 15 µM with Leishmania infantum.

As for `CCN(CC)CCCNc1nc2ccc(Nc3ccccc3C(=O)O)cc2s1`, the IC50 is 134 µM in the assay with Trichomonas vaginalis and 2 µM in the assay on Leishmania infantum.

Turning to `CCCNc1nc2ccc(Nc3ccccc3C(=O)O)cc2s1`, the IC50 turned out to be 76 µM with Trichomonas vaginalis and 39 µM in the assay on Leishmania infantum.

Take `O=C(O)c1ccccc1Nc1ccc2nc(Nc3ccccc3)sc2c1`: the IC50 with Trichomonas vaginalis was found to be 41 µM; with Leishmania infantum it was 30 µM.

Turning to `N=C(N)c1ccc(NC(=O)Cn2ccnc2[N+](=O)[O-])cc1`, the IC50 in assay [2] was 6 µM; in assay [1], 200 µM.

On to `N=C(N)c1ccc(NC(=O)Cn2cnc([N+](=O)[O-])c2)cc1`, for which the IC50 stood at 80 µM in assay [2] and 200 µM in assay [1].

Compound `CNc1nc(NC)nc(NN)n1` came in with an IC50 in assay [1] of 200 µM.

On to `Nc1nc(N)nc(N/N=C\c2ccc([N+](=O)[O-])s2)n1`, for which the midpoint of inhibition in assay [1], the IC50, lay at 1 µM.

Regarding `Nc1nc(N)nc(N/N=C\c2ccco2)n1`, the values for the IC50 in assay [2] and in assay [1] were 13 µM and 29 µM, respectively.

Consider `Nc1nc(N)nc(N/N=C\c2cccs2)n1`, for which the results for the IC50 in assay [2] and in assay [1] were 10 µM and 89 µM, respectively.

In turn, `CNc1nc(NC)nc(N/N=C\c2ccc([N+](=O)[O-])o2)n1` yielded an IC50 in assay [1] of 15 µM.

Consider `CC(C)(C)OC(=O)NC(=N)c1ccc(NC(=O)Cn2ccnc2[N+](=O)[O-])cc1`, for which the IC50 in assay [1] turned out to be 119 µM.

As for `CCCN(CCC)c1ccc(S(=O)(=O)Nc2ccccc2)cc1[N+](=O)[O-]`, the figures for the IC50 (in the assay with Leishmania donovani; in assay [1]) were 43 µM and 20 µM, respectively.

`CCCN(CCC)c1ccc(S(=O)(=O)N([N+](=O)[O-])[N+](=O)[O-])cc1`: the IC50 in the assay on Leishmania donovani is 65 µM; in assay [1], 12 µM.

In assay [1], `NNc1nc(N)nc(N)n1` registered an IC50 of 200 µM.

For the compound `N/N=C/c1ccc([N+](=O)[O-])o1`, the figures for the half-maximal inhibitory concentration (IC50) in assay [2] and in assay [1] were 2 µM and 14 µM, respectively.

Consider `CCCN(CCC)c1c([N+](=O)[O-])cc(S(=O)(=O)N(C)C)cc1[N+](=O)[O-]`, for which the IC50 in the assay on Leishmania donovani amounted to 100 µM; in assay [1], 6 µM.

`CCCN(CCC)c1c([N+](=O)[O-])cc(S(=O)(=O)NC2CC2)cc1[N+](=O)[O-]` gave an IC50 in assay [1] of 3 µM.

`CCCN(CCC)c1c([N+](=O)[O-])cc(S(=O)(=O)Nc2cccc(OC)c2)cc1[N+](=O)[O-]`: the 50% inhibitory concentration (IC50) in the assay on Leishmania donovani is 8 µM; in assay [1] it was 1 µM.

As to `CCCNS(=O)(=O)c1cc([N+](=O)[O-])c(N(CCC)CCC)c([N+](=O)[O-])c1`, half-maximal inhibition in assay [1] (IC50) required 9 µM.

For `CCCN(CCC)c1c([N+](=O)[O-])cc(S(=O)(=O)N(CC)CC)cc1[N+](=O)[O-]`, the IC50 in assay [1] is 8 µM.

The compound `O=C(NCCCN1CCN(C(=O)OCc2ccccc2)C1)OCc1ccccc1` yielded an IC50 in assay [2] of 1 µM.

For the compound `CN(CCCNC1=NCCN1)CCNC1=NCCN1`, half-maximal inhibition in assay [2] (IC50) was put at 2 µM.

In the case of `CCCN(CCC)c1c([N+](=O)[O-])cc(S(=O)(=O)Nc2ccc(Cl)c(Cl)c2)cc1[N+](=O)[O-]`, half-maximal inhibition in assay [1] (IC50) was put at 8 µM.

The compound `CCCN(CCC)c1c([N+](=O)[O-])cc(S(=O)(=O)N2CCCC2)cc1[N+](=O)[O-]` showed a half-maximal inhibitory concentration (IC50) in assay [1] of 7 µM.

With `CCCN(CCC)c1c([N+](=O)[O-])cc(S(=O)(=O)N2CCOCC2)cc1[N+](=O)[O-]`, the IC50 (in the assay on Leishmania donovani; in assay [1]) was 100 µM in each case.

With `CCCN(CCC)c1c([N+](=O)[O-])cc(S(=O)(=O)Nc2cccc(C)c2)cc1[N+](=O)[O-]`, the IC50 in assay [1] was determined as 2 µM.

With `CCCN(CCC)c1c([N+](=O)[O-])cc(S(=O)(=O)Nc2cccc(Cl)c2)cc1[N+](=O)[O-]`, the values for the IC50 (in the assay on Leishmania donovani; in assay [1]) were 6 µM and 2 µM, respectively.

On to `CCCN(CCC)c1c([N+](=O)[O-])cc(S(=O)(=O)NC)cc1[N+](=O)[O-]`, for which the IC50 with Leishmania donovani is 100 µM; in assay [1], 5 µM.

Take `CCCN(CCC)c1c([N+](=O)[O-])cc(S(=O)(=O)NCC)cc1[N+](=O)[O-]`: the IC50 in the assay with Leishmania donovani is 100 µM; in assay [1] it was 5 µM.

In the case of `CCCN(CCC)c1c([N+](=O)[O-])cc(S(=O)(=O)NC(C)C)cc1[N+](=O)[O-]`, the results for the IC50 (in the assay with Leishmania donovani; in assay [1]) were 100 µM and 4 µM, respectively.

For `CCN(CC)c1c([N+](=O)[O-])cc(S(=O)(=O)Nc2ccccc2)cc1[N+](=O)[O-]`, half-maximal inhibition in assay [1] (IC50) required 3 µM.

Turning to `CCCCCCN(CCCCCC)S(=O)(=O)c1cc([N+](=O)[O-])c(N(CCC)CCC)c([N+](=O)[O-])c1`, the IC50 with Leishmania donovani was 100 µM; in assay [1], 50 µM.

As for `CCCN(CCC)c1c([N+](=O)[O-])cc(S(=O)(=O)Nc2ccccn2)cc1[N+](=O)[O-]`, in assay [1], the IC50 was 9 µM.

For the compound `CN(CCCNC(=O)OCc1ccccc1)CCNC(=O)OCc1ccccc1`, in assay [2], the midpoint of inhibition, the IC50, lay at 21 µM.

`N=C(N)NCCCNCCNC(=N)N`: the midpoint of inhibition in assay [2], the IC50, lay at 20 µM.

Compound `O=C(NCCCN(CCO)CCNC(=O)OCc1ccccc1)OCc1ccccc1` came in with an IC50 in assay [2] of 4 µM.

In the case of `CC(=O)OCCN(CCCNC(=O)OCc1ccccc1)CCNC(=O)OCc1ccccc1`, the IC50 in assay [2] came out at 30 µM.

`CN(CCN)CCCN` registered an IC50 in assay [2] of 69 µM.

In turn, `NCCCN(CCN)CCc1c[nH]c2ccccc12` yielded an IC50 in assay [2] of 16 µM.

In turn, `O=C(NCCCN(CCNC(=O)OCc1ccccc1)CCc1c[nH]c2ccccc12)OCc1ccccc1` gave an IC50 in assay [2] of 84 µM.

`C(CNCCNC1=NCCN1)CNC1=NCCN1` came in with an IC50 in assay [2] of 11 µM.

Turning to `O=[N+]([O-])c1ccc(/C=N/O)o1` [NIFUROXIME], the IC50 in assay [2] and in assay [1] was 1 µM throughout.

The record behind these values is ChEMBL document CHEMBL1212812, “Multi-target spectral moment QSAR versus ANN for antiparasitic drugs against different parasite species” (Bioorg Med Chem, 2010).
